# According to patent publication US6737383B1, “Herbicidal oxadiazolidines” (priority 1999, dated 2004):
# What was measured:
# [1] = system: cocklebur; assay: Test B pre/postemergence cocklebur; format: in vivo, Xanthium strumarium; conditions: for Cocklebur plant response rating: scale of 0 to 10 where 0 is no effect and 10 is complete control
# Summary of the method: (§1)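 Herbicidal effect was estimated by eye on a ten-point control scale after plants spent twelve to sixteen days in a greenhouse following soil or foliar treatment. Foliar sprays targeted plants at one to four leaves; all doses were formulated in a non-phytotoxic solvent with surfactant.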
# [2] = system: wild oat; assay: Test B pre/postemergence wild oat; format: in vivo, Avena fatua; conditions: for Wild oats plant response rating: scale of 0 to 10 where 0 is no effect and 10 is complete control
# Summary of the method: as §1
# [3] = system: bamyardgrass; assay: Test B flood test barnyardgrass; format: in vivo, Echinochloa crus-galli
# Summary of the method: (§2)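 Each value is a visual injury score relative to controls, with 10 meaning complete control and 0 no effect. Evaluation took place twelve to sixteen days after the 2-leaf-stage plants were treated and kept in the greenhouse.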
# [4] = system: pigweed; assay: Test B pre/postemergence pigweed; format: in vivo, Amaranthus retroflexus; conditions: for Redroot pigweed plant response rating: scale of 0 to 10 where 0 is no effect and 10 is complete control
# Summary of the method: as §1
# [5] = system: rice; assay: Test B flood test rice; format: in vivo, Oryza sativa
# Summary of the method: as §2
# [6] = system: bedstraw; assay: Test B pre/postemergence bedstraw; format: in vivo, Galium aparine; conditions: Postemergence
# Summary of the method: as §1
# [7] = system: surinam grass; assay: Test B pre/postemergence surinam grass; format: in vivo, Brachiaria decumbens; conditions: for B. signalgrass plant response rating: scale of 0 to 10 where 0 is no effect and 10 is complete control
# Summary of the method: as §1
# [8] = system: morningglory; assay: Test B pre/postemergence morningglory; format: in vivo, Ipomoea hederacea; conditions: for Morningglory plant response rating: scale of 0 to 10 where 0 is no effect and 10 is complete control
# Summary of the method: as §1
# [9] = system: rape; assay: Test B pre/postemergence rape; format: in vivo, Brassica napus; conditions: for Rape plant response rating: scale of 0 to 10 where 0 is no effect and 10 is complete control
# Summary of the method: as §1
# [10] = system: smallflower flatsedge; assay: Test B flood test smallflower flatsedge; format: in vivo, Cyperus difformis
# Summary of the method: as §2
# [11] = system: soybean; assay: Test B pre/postemergence soybean; format: in vivo, Glycine max; conditions: for Soybean plant response rating: scale of 0 to 10 where 0 is no effect and 10 is complete control
# Summary of the method: as §1
# [12] = system: corn; assay: Test B pre/postemergence corn; format: in vivo, Zea mays; conditions: for Corn plant response rating: scale of 0 to 10 where 0 is no effect and 10 is complete control
# Summary of the method: as §1
# [13] = system: velvetleaf; assay: Test B pre/postemergence velvetleaf; format: in vivo, Abutilon theophrasti; conditions: for Velvetleaf plant response rating: scale of 0 to 10 where 0 is no effect and 10 is complete control
# Summary of the method: as §1
# [14] = system: sugar beet; assay: Test B pre/postemergence sugar beet; format: in vivo, Beta vulgaris; conditions: for Sugarbeets plant response rating: scale of 0 to 10 where 0 is no effect and 10 is complete control
# Summary of the method: as §1
# [15] = system: purple nutsedge; assay: Test B pre/postemergence purple nutsedge; format: in vivo, Cyperus rotundus; conditions: for Nutsedge plant response rating: scale of 0 to 10 where 0 is no effect and 10 is complete control
# Summary of the method: as §1
# [16] = system: blackgrass; assay: Test B pre/postemergence blackgrass; format: in vivo, Alopecurus myosuroides; conditions: for Blackgrass plant response rating: scale of 0 to 10 where 0 is no effect and 10 is complete control
# Summary of the method: as §1
# [17] = Postemergence, Rate 125 g/ha, scale 0 to 10, 0 is no effect, 10 is complete control
# [18] = Postemergence, Rate 250 g/ha, scale 0 to 10, 0 is no effect, 10 is complete control
# [19] = Preemergence, Rate 62 g/ha, scale 0 to 10 (0 no effect, 10 complete control)
# [20] = Rate 500 g/ha, Postemergence, scale 0 to 10, 0 no effect, 10 complete control
# [21] = Postemergence (flood test), Rate 125 g/ha, scale 0 to 10, 0 is no effect, 10 is complete control
# [22] = Rate 62 g/ha, Postemergence (flood test species), scale of 0 to 10 where 0 is no effect and 10 is complete control
# [23] = Rate 500 g/ha, listed under Postemergence (flood test species), scale 0 to 10, 0 no effect, 10 complete control
# [24] = flood test species, listed under Postemergence, Rate 250 g/ha, scale 0 to 10, 0 is no effect, 10 is complete control
structure (smiles),measurement,setting,value
CC(C)N(C(=O)n1oc(=O)n(C2(C)CC2)c1=O)c1ccccc1 [Compound 360],"Plant response rating, Cocklebur",[1]; [17],0
same,"Plant response rating, Cocklebur",[1]; [18],0
same,"Plant response rating, Cocklebur",[1]; [19],0
same,Cocklebur plant response rating (0 to 10 scale),"[1]; Preemergence, Rate 125 g/ha",0
same,Cocklebur plant response rating,"[1]; Preemergence, Rate 500 g/ha",0
same,Cocklebur plant response rating,"[1]; Rate 62 g/ha, Postemergence",0
same,"Plant response rating, Cocklebur",[1]; [20],0
same,"Plant response rating, Wild oats",[2]; [17],3
same,"Plant response rating, Wild oats",[2]; [18],3
same,"Plant response rating, Wild oats",[2]; [19],3
same,Wild oats plant response rating (0 to 10 scale),"[2]; Preemergence, Rate 125 g/ha",10
same,Wild oats plant response rating,"[2]; Preemergence, Rate 250 g/ha",10
same,Wild oats plant response rating,"[2]; Preemergence, Rate 500 g/ha",10
same,Wild oats plant response rating,"[2]; Rate 62 g/ha, Postemergence",3
same,"Plant response rating, Wild oats",[2]; [20],5
same,"Plant response rating, Barnyardgrass",[3]; [21],2
same,Barnyardgrass plant response rating,[3]; [22],2
same,"Plant response rating, Barnyardgrass",[3]; [23],7
same,"Plant response rating, Barnyardgrass",[3]; [24],6
same,"Plant response rating, Redroot pigweed",[4]; [17],0
same,"Plant response rating, Redroot pigweed",[4]; [18],3
same,"Plant response rating, Redroot pigweed",[4]; [19],5
same,Redroot pigweed plant response rating (0 to 10 scale),"[4]; Preemergence, Rate 125 g/ha",5
same,Redroot pigweed plant response rating,"[4]; Preemergence, Rate 250 g/ha",10
same,Redroot pigweed plant response rating,"[4]; Preemergence, Rate 500 g/ha",10
same,Redroot pigweed plant response rating,"[4]; Rate 62 g/ha, Postemergence",0
same,"Plant response rating, Redroot pigweed",[4]; [20],6
same,"Plant response rating, Rice",[5]; [21],0
same,Rice plant response rating,[5]; [22],0
same,"Plant response rating, Rice",[5]; [23],3
same,"Plant response rating, Rice",[5]; [24],3
same,"Plant response rating, Bedstraw","[6]; Rate 125 g/ha, scale 0 to 10, 0 is no effect, 10 is complete control",0
same,"Plant response rating, Bedstraw","[6]; Rate 250 g/ha, scale 0 to 10, 0 is no effect, 10 is complete control",2
same,Bedstraw plant response rating,"[6]; Rate 62 g/ha, scale of 0 to 10 where 0 is no effect and 10 is complete control",0
same,"Plant response rating, Bedstraw","[6]; Rate 500 g/ha, scale 0 to 10, 0 no effect, 10 complete control",4
same,"Plant response rating, B. signalgrass",[7]; [17],0
same,"Plant response rating, B. signalgrass",[7]; [18],5
same,"Plant response rating, B. signalgrass",[7]; [19],5
same,"B. signalgrass plant response rating (0 to 10 scale, 0 is no effect, 10 is complete control)","[7]; Preemergence, Rate 125 g/ha",6
same,B. signalgrass plant response rating,"[7]; Preemergence, Rate 250 g/ha",7
same,B. signalgrass plant response rating,"[7]; Preemergence, Rate 500 g/ha",7
same,B. signalgrass plant response rating,"[7]; Rate 62 g/ha, Postemergence",0
same,"Plant response rating, B. signalgrass",[7]; [20],7
same,"Plant response rating, Morningglory",[8]; [17],4
same,"Plant response rating, Morningglory",[8]; [18],4
same,"Plant response rating, Morningglory",[8]; [19],0
same,Morningglory plant response rating (0 to 10 scale),"[8]; Preemergence, Rate 125 g/ha",5
same,Morningglory plant response rating,"[8]; Preemergence, Rate 250 g/ha",7
same,Morningglory plant response rating,"[8]; Preemergence, Rate 500 g/ha",10
same,Morningglory plant response rating,"[8]; Rate 62 g/ha, Postemergence",4
same,"Plant response rating, Morningglory",[8]; [20],5
same,"Plant response rating, Rape",[9]; [17],0
same,"Plant response rating, Rape",[9]; [18],0
same,"Plant response rating, Rape",[9]; [19],0
same,Rape plant response rating (0 to 10 scale),"[9]; Preemergence, Rate 125 g/ha",0
same,Rape plant response rating,"[9]; Preemergence, Rate 250 g/ha",0
same,Rape plant response rating,"[9]; Preemergence, Rate 500 g/ha",0
same,Rape plant response rating,"[9]; Rate 62 g/ha, Postemergence",0
same,"Plant response rating, Rape",[9]; [20],0
same,"Plant response rating, S. Flatsedge",[10]; [21],4
same,S. Flatsedge plant response rating,[10]; [22],2
same,"Plant response rating, S. Flatsedge",[10]; [23],8
same,"Plant response rating, S. Flatsedge",[10]; [24],4
same,"Plant response rating, Soybean",[11]; [17],2
same,"Plant response rating, Soybean",[11]; [18],2
same,"Plant response rating, Soybean",[11]; [19],0
same,Soybean plant response rating (0 to 10 scale),"[11]; Preemergence, Rate 125 g/ha",0
same,Soybean plant response rating,"[11]; Preemergence, Rate 250 g/ha",0
same,Soybean plant response rating,"[11]; Preemergence, Rate 500 g/ha",5
same,Soybean plant response rating,"[11]; Rate 62 g/ha, Postemergence",1
same,"Plant response rating, Soybean",[11]; [20],3
same,"Plant response rating, Corn",[12]; [17],2
same,"Plant response rating, Corn",[12]; [18],6
same,"Plant response rating, Corn",[12]; [19],0
same,Corn plant response rating (0 to 10 scale),"[12]; Preemergence, Rate 125 g/ha",3
same,Corn plant response rating,"[12]; Preemergence, Rate 250 g/ha",4
same,Corn plant response rating,"[12]; Preemergence, Rate 500 g/ha",9
same,Corn plant response rating,"[12]; Rate 62 g/ha, Postemergence",2
same,"Plant response rating, Corn",[12]; [20],7
same,"Plant response rating, Velvetleaf",[13]; [17],0
same,"Plant response rating, Velvetleaf",[13]; [18],0
same,"Plant response rating, Velvetleaf",[13]; [19],3
same,Velvetleaf plant response rating (0 to 10 scale),"[13]; Preemergence, Rate 125 g/ha",6
same,Velvetleaf plant response rating,"[13]; Preemergence, Rate 250 g/ha",7
same,Velvetleaf plant response rating,"[13]; Preemergence, Rate 500 g/ha",7
same,Velvetleaf plant response rating,"[13]; Rate 62 g/ha, Postemergence",0
same,"Plant response rating, Velvetleaf",[13]; [20],4
same,"Plant response rating, Sugarbeets",[14]; [17],0
same,"Plant response rating, Sugarbeets",[14]; [18],2
same,"Plant response rating, Sugarbeets",[14]; [19],2
same,Sugarbeets plant response rating (0 to 10 scale),"[14]; Preemergence, Rate 125 g/ha",6
same,Sugarbeets plant response rating,"[14]; Preemergence, Rate 250 g/ha",6
same,Sugarbeets plant response rating,"[14]; Preemergence, Rate 500 g/ha",7
same,Sugarbeets plant response rating,"[14]; Rate 62 g/ha, Postemergence",0
same,"Plant response rating, Sugarbeets",[14]; [20],7
same,"Plant response rating, Nutsedge",[15]; [17],0
same,"Plant response rating, Nutsedge",[15]; [18],2
same,"Plant response rating, Nutsedge",[15]; [19],0
same,Nutsedge plant response rating (0 to 10 scale),"[15]; Preemergence, Rate 125 g/ha",0
same,Nutsedge plant response rating,"[15]; Preemergence, Rate 250 g/ha",0
same,Nutsedge plant response rating,"[15]; Preemergence, Rate 500 g/ha",7
same,Nutsedge plant response rating,"[15]; Rate 62 g/ha, Postemergence",0
same,"Plant response rating, Nutsedge",[15]; [20],4
same,"Plant response rating, Blackgrass",[16]; [17],5
same,"Plant response rating, Blackgrass",[16]; [18],6
same,"Plant response rating, Blackgrass",[16]; [19],9
same,Blackgrass plant response rating (0 to 10 scale),"[16]; Preemergence, Rate 125 g/ha",9
same,Blackgrass plant response rating,"[16]; Preemergence, Rate 250 g/ha",9
same,Blackgrass plant response rating,"[16]; Preemergence, Rate 500 g/ha",10
same,Blackgrass plant response rating,"[16]; Rate 62 g/ha, Postemergence",5
same,"Plant response rating, Blackgrass",[16]; [20],7
